# US8481540B2, “Inhibitors of bruton's tyrosine kinase” (Hoffmann-La Roche Inc., priority 2010, dated 2013)
# System: B cells in human blood
# Assay: Inhibition of B cell activation in whole blood measured by CD69 expression
# Type: cell-based
# Settings: CD69-positive, CD20-positive cells after anti-IgM stimulation, human whole blood, 20 hours, read-out: Human Whole Blood
# Procedure: Inhibition of B Cell Activation in Whole Blood Measured by CD69 Expression
# A procedure to test the ability of Btk inhibitors to suppress B cell receptor-mediated activation of B cells in human blood is as follows:
# Human whole blood (HWB) is obtained from healthy volunteers, with the following restrictions: 24 hr drug-free, non-smokers. Blood is collected by venipuncture into Vacutainer tubes anticoagulated with sodium heparin. Test compounds are diluted to […] the desired starting drug concentration in PBS (20×), followed by three-fold serial dilutions in 10% DMSO in PBS to produce a nine point dose-response curve. 5.5 μl of each compound dilution is added in duplicate to a 2 ml96-well V bottom plate (Analytical Sales and Services, #59623-23); 5.5 μl of 10% DMSO in PBS is added to control and no-stimulus wells. HWB (100 μl) is added to each well, and after mixing the plates are incubated at 37 C, 5% CO2, 100% humidity for 30 minutes. Goat F(ab′)2 anti-human IgM (Southern Biotech, #2022-14) (10 μl of a […] solution, 50 μg/ml final concentration) is added to each well (except the no-stimulus wells) with mixing and the plates are incubated for an additional 20 hours.
# At the end of the 20 hour incubation, samples are incubated with florescent-probe-labeled anti-bodies (15 μl PE Mouse anti-Human CD20, BD Pharmingen, #555623, and/or 20 ul APC Mouse anti-Human CD69, BD Pharmingen #555533) for 30 minutes, at 37 C, 5% CO2, 100% humidity. Included are induced control, unstained and single stains for compensation adjustments and initial voltage settings. Samples are then lysed with 1 ml of 1× Pharmingen Lyse Buffer (BD Pharmingen #555899), and plates are centrifuged at 1800 rpm for 5 minutes. Supernatants are removed via suction and the remaining pellets are lysed again with another 1 ml of 1× Pharmingen Lyse Buffer, and plates are spun down as before. Supernatants are aspirated and remaining pellets are washed in FACs buffer (PBS+1% FBS). After a final spin, the supernantants are removed and pellets are resuspended in 180 μl of FACs buffer. Samples are transferred to a 96 well plate suitable to be run on the HTS 96 well system on the BD LSR II flow cytometer.
# Using appropriate excitation and emission wavelengths for the fluorophores used, data are acquired and percent positive cell values are obtained using Cell Quest Software. Results are initially analyzed by FACS analysis software (Flow Jo). […] The IC50 values are calculated using XLfit software version 3, equation 201.
# Representative compound data for this assay are listed below in Table II.
row,Structure (SMILES),IC50 [nM]
1,"CN1CCC(c2ccc(Nc3cc(-c4cccc(-n5ccc6cc(C(C)(C)C#N)cc(F)c6c5=O)c4CO)nn(C)c3=O)nc2)CC1 [I-71, 2-(8-Fluoro-2-{2-hydroxymethyl-3-[1-methyl-5-(1′-methyl-1′,2′,3′,4′,5′,6′-hexahydro-[3,4′]bipyridinyl-6-ylamino)-6-oxo-1,6-dihydro-pyridazin-3-yl]-phenyl}-1-oxo-1,2-dihydro-isoquinolin-6-yl)-2-methyl-propionitrile]",32
2,"Cn1nc(Nc2cc(-c3cccc(-n4ccc5cc(C(C)(C)C#N)cc(F)c5c4=O)c3CO)nn(C)c2=O)cc1CN1CCC1 [I-72, 2-(2-{3-[5-(5-Azetidin-1-ylmethyl-1-methyl-1H-pyrazol-3-ylamino)-1-methyl-6-oxo-1,6-dihydro-pyridazin-3-yl]-2-hydroxymethyl-phenyl}-8-fluoro-1-oxo-1,2-dihydro-isoquinolin-6-yl)-2-methyl-propionitrile]",56
3,"CN1CC[C@H](c2ccc(Nc3cc(-c4cccc(-n5ncc6cc(C(C)(C)C)cc(F)c6c5=O)c4CO)nn(C)c3=O)nc2)C1 [I-33, 6-tert-Butyl-8-fluoro-2-(2-hydroxymethyl-3-{1-methyl-5-[5-((R)-1-methyl-pyrrolidin-3-yl)-pyridin-2-ylamino]-6-oxo-1,6-dihydro-pyridazin-3-yl}-phenyl)-2H-phthalazin-1-one]",2
4,"CN1C[C@@H]2C[C@H]1CN2c1ccc(Nc2cc(-c3cccc(-n4ncc5cc(C(C)(C)C)cc(F)c5c4=O)c3CO)nn(C)c2=O)nn1 [I-46, 6-tert-Butyl-8-fluoro-2-(2-hydroxymethyl-3-{1-methyl-5-[6-((1S,4S)-5-methyl-2,5-diaza-bicyclo[2.2.1]hept-2-yl)-pyridazin-3-ylamino]-6-oxo-1,6-dihydro-pyridazin-3-yl}-phenyl)-2H-phthalazin-1-one]",293
5,"Cn1nc(-c2cccc(-n3ncc4cc(C(C)(C)C)cc(F)c4c3=O)c2CO)cc(Nc2ccc(C(=O)N3CCC(O)C3)cn2)c1=O (stereo not drawn) [I-54, 6-tert-butyl-8-fluoro-2-(2-(hydroxymethyl)-3-(5-(5-(3-hydroxypyrrolidine-1-carbonyl)pyridin-2-ylamino)-1-methyl-6-oxo-1,6-dihydropyridazin-3-yl)phenyl)phthalazin-1(2H)-one]",104
6,"CN1CCC(c2ccc(Nc3cc(-c4cccc(-n5ncc6cc(C(C)(C)C)cc(F)c6c5=O)c4CO)nn(C)c3=O)nc2)C1 (stereo not drawn) [I-28, 6-tert-Butyl-8-fluoro-2-(2-hydroxymethyl-3-{1-methyl-5-[5-(1-methyl-pyrrolidin-3-yl)-pyridin-2-ylamino]-6-oxo-1,6-dihydro-pyridazin-3-yl}-phenyl)-2H-phthalazin-1-one]",6
7,"Cn1nc(-c2cccc(-n3ncc4cc(C(C)(C)C)cc(F)c4c3=O)c2CO)cc(Nc2ccc(CN3CCC(C)(O)CC3)cn2)c1=O [I-85, 6-tert-Butyl-8-fluoro-2-(2-hydroxymethyl-3-{5-[5-(4-hydroxy-4-methyl-piperidin-1-ylmethyl)-pyridin-2-ylamino]-1-methyl-6-oxo-1,6-dihydro-pyridazin-3-yl}-phenyl)-2H-phthalazin-1-one]",294
8,"CN1CCC[C@H]1c1ccc(Nc2cc(-c3cccc(-n4ccc5cc(C(C)(C)C#N)cc(F)c5c4=O)c3CO)nn(C)c2=O)nc1 [I-76, 2-[8-Fluoro-2-(2-hydroxymethyl-3-{1-methyl-5-[5-((S)-1-methyl-pyrrolidin-2-yl)-pyridin-2-ylamino]-6-oxo-1,6-dihydro-pyridazin-3-yl}-phenyl)-1-oxo-1,2-dihydro-isoquinolin-6-yl]-2-methyl-propionitrile]",51
9,COC[C@@H](O)COc1ccc(Nc2cc(-c3cccc(-n4ncc5cc(C(C)(C)C)cc(F)c5c4=O)c3CO)nn(C)c2=O)nc1 [I-17],41
10,"Cc1cc(Nc2cc(-c3cccc(-n4ncc5cc(C(C)(C)C)cc(F)c5c4=O)c3CO)nn(C)c2=O)nn1C [I-31, 6-tert-Butyl-2-{3-[5-(1,5-dimethyl-1H-pyrazol-3-ylamino)-1-methyl-6-oxo-1,6-dihydro-pyridazin-3-yl]-2-hydroxymethyl-phenyl}-8-fluoro-2H-phthalazin-1-one]",32
11,"CCS(=O)(=O)c1ccc(Nc2cc(-c3cccc(-n4ncc5cc(C(C)(C)C)cc(F)c5c4=O)c3CO)nn(C)c2=O)nc1 [I-23, 6-tert-Butyl-2-{3-[5-(5-ethanesulfonyl-pyridin-2-ylamino)-1-methyl-6-oxo-1,6-dihydro-pyridazin-3-yl]-2-hydroxymethyl-phenyl}-8-fluoro-2H-phthalazin-1-one]",60
12,"Cn1nc(-c2cccc(-n3ccc4cc(C(C)(C)C#N)cc(F)c4c3=O)c2CO)cc(Nc2cc3n(n2)CCN(C2COC2)C3)c1=O [I-79, 2-(8-Fluoro-2-{2-hydroxymethyl-3-[1-methyl-5-(5-oxetan-3-yl-4,5,6,7-tetrahydro-pyrazolo[1,5-a]pyrazin-2-ylamino)-6-oxo-1,6-dihydro-pyridazin-3-yl]-phenyl}-1-oxo-1,2-dihydro-isoquinolin-6-yl)-2-methyl-propionitrile]",60
13,"Cn1nc(-c2cccc(-n3ncc4cc(C(C)(C)C)cc(F)c4c3=O)c2CO)cc(Nc2ccc(C3CCN(S(C)(=O)=O)CC3)cn2)c1=O [I-62, 6-tert-butyl-8-fluoro-2-(2-(hydroxymethyl)-3-(1-methyl-5-(5-(1-(methylsulfonyl)-piperidin-4-yl)pyridin-2-ylamino)-6-oxo-1,6-dihydropyridazin-3-yl)phenyl)phthalazin-1(2H)-one]",144
14,"Cn1nc(-c2cccc(-n3ncc4cc(C(C)(C)C)cc(F)c4c3=O)c2CO)cc(Nc2ccc(C3CCNCC3)cn2)c1=O [I-61, 6-tert-butyl-8-fluoro-2-(2-(hydroxymethyl)-3-(1-methyl-6-oxo-5-(5-(piperidin-4-yl)pyridin-2-ylamino)-1,6-dihydropyridazin-3-yl)phenyl)phthalazin-1(2H)-one]",74
15,"Cn1nc(-c2cccc(-n3ncc4cc(C(C)(C)C)cc(F)c4c3=O)c2CO)cc(Nc2ccc(C(=O)N3CCC3)cn2)c1=O [I-47, 2-(3-{5-[5-(Azetidine-1-carbonyl)-pyridin-2-ylamino]-1-methyl-6-oxo-1,6-dihydro-pyridazin-3-yl}-2-hydroxymethyl-phenyl)-6-tert-butyl-8-fluoro-2H-phthalazin-1-one]",76
16,"Cn1nc(-c2cccc(-n3ncc4cc(C(C)(C)C)cc(F)c4c3=O)c2CO)cc(Nc2ccc(C(=O)N3CCS(=O)(=O)CC3)cn2)c1=O [I-48, 6-tert-Butyl-2-(3-{5-[5-(1,1-dioxo-1λ^6-thiomorpholine-4-carbonyl)-pyridin-2-ylamino]-1-methyl-6-oxo-1,6-dihydro-pyridazin-3-yl}-2-hydroxymethyl-phenyl)-8-fluoro-2H-phthalazin-1-one]",185
17,"CC(=O)N1CCC(c2ccc(Nc3cc(-c4cccc(-n5ncc6cc(C(C)(C)C)cc(F)c6c5=O)c4CO)nn(C)c3=O)nc2)CC1 [I-63, 2-(3-(5-(5-(1-acetylpiperidin-4-yl)pyridin-2-ylamino)-1-methyl-6-oxo-1,6-dihydropyridazin-3-yl)-2-(hydroxymethyl)phenyl)-6-tert-butyl-8-fluorophthalazin-1(2H)-one]",189
18,"COC[C@H](O)COc1ccc(Nc2cc(-c3cccc(-n4ncc5cc(C(C)(C)C)cc(F)c5c4=O)c3CO)nn(C)c2=O)nc1 [I-16, 6-tert-Butyl-8-fluoro-2-(3-{5-[5-((S)-2-hydroxy-3-methoxy-propoxy)-pyridin-2-ylamino]-1-methyl-6-oxo-1,6-dihydro-pyridazin-3-yl}-2-hydroxymethyl-phenyl)-2H-phthalazin-1-one]",26
19,"CN1CCN(c2ccc(Nc3cc(-c4cccc(-n5ncc6cc(C(C)(C)C)cc(F)c6c5=O)c4CO)nn(C)c3=O)nn2)CC1 [I-45, 6-tert-Butyl-8-fluoro-2-(2-hydroxymethyl-3-{1-methyl-5-[6-(4-methyl-piperazin-1-yl)-pyridazin-3-ylamino]-6-oxo-1,6-dihydro-pyridazin-3-yl}-phenyl)-2H-phthalazin-1-one]",27
20,CN(C)C(=O)c1ccc(Nc2cc(-c3cccc(-n4ncc5cc(C(C)(C)C)cc(F)c5c4=O)c3CO)nn(C)c2=O)nc1 [I-20],15
21,"Cn1nc(-c2cccc(-n3ncc4cc(C(C)(C)C)cc(F)c4c3=O)c2CO)cc(Nc2ccc(C3CCN(CC(F)(F)F)CC3)cn2)c1=O [I-90, 6-tert-butyl-8-fluoro-2-(2-hydroxymethyl-3-{1-methyl-6-oxo-5-[1′-(2,2,2-trifluoro-ethyl)-1′,2′,3′,4′,5′,6′-hexahydro-[3,4′]bipyridinyl-6-ylamino]-1,6-dihydro-pyridazin-3-yl}-phenyl)-2H-phthalazin-1-one]",340
